Experimental data taken from article PMC3206814, “Stereo-Selectivity of Human Serum Albumin to Enantiomeric and Isoelectronic Pollutants Dissected by Spectroscopy, Calorimetry and Bioinformatics” (PLoS ONE, 2011).
pKd: −log10 of the molar value.

What was measured:
[1] = target: T1, human serum albumin (HSA) (Homo sapiens, UniProt P02768); assay: isothermal titration calorimetry, two-site sequential model; assay type: binding; details: read-out: Kb(M^-1) (converted)
T1 construct: gene ALB; commercial, essentially fatty acid free, full-length mature monomer of 585 residues, dialyzed, used without further purification
From the text: isothermal titration calorimetry, two-site sequential model on human serum albumin (HSA)

[2] = target: T1, human serum albumin (HSA); assay: UV absorption titration at […] nm, […]/dA vs […]/[S] plot; assay type: binding

T1 sequence (P02768 25-609): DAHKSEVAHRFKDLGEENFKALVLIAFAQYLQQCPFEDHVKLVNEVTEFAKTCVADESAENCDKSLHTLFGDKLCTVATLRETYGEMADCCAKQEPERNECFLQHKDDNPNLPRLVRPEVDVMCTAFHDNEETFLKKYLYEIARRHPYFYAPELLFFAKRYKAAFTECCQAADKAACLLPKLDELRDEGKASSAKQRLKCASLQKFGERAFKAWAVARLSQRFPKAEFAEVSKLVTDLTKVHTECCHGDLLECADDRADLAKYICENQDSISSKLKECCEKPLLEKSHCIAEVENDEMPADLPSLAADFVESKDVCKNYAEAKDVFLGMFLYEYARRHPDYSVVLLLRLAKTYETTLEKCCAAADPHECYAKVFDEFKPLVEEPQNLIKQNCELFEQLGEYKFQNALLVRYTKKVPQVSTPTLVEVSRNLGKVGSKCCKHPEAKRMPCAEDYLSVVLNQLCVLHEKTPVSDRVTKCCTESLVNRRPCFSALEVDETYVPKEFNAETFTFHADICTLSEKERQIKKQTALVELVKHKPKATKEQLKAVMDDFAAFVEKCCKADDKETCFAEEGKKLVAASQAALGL

Oc1ccc2ccccc2c1 [2N, naphthalen–2–ol]
Kd [1]: 25.3 µM
pKd [2]: 4.17
